In data set [1] the test system is human sperm with activated human neutrophils. Description: Kremer penetration assay. It is filed as cell-based. The conditions noted are these: 3 μM. On the procedure: (§1) The neutrophils were then added to the sperm in sperm-safe 5 mL Polystyrene round bottom tubes (Falcon) at a ratio of about 1:3.
The Kremer penetration test assesses a sperm cell's ability to penetrate and swim through viscous media. This test is also known as the sperm-cervical mucus penetration test. A cervical mucus substitute was made up using 1% methyl cellulose dissolved in capacitating media. The solution was gassed in a 37° C. 5% CO2 incubator for 20 min. Then flat capillary tubes (Rectangle Boro Tubing, CM Scientific) were placed in the methyl cellulose solution for a further 20 min to allow the media to flow up the capillary tubes. After the 2 h incubation, 100 μL from each condition was aliquoted into a fresh sperm safe tube. One end of each tube was then blocked using plasticine and then one tube was placed open end first into each test condition. Each sperm safe tube containing a capillary tube was incubated 1 hour at 37° C. with 5% CO2. After 1 h, the capillary tubes were removed and the number of cells at 1 cm mark were counted manually. The results were expressed as a ratio to control (sperm only).

The target in data set [2] is T1, human MPO (Homo sapiens, UniProt P05164).
T1 sequence (P05164 49-745): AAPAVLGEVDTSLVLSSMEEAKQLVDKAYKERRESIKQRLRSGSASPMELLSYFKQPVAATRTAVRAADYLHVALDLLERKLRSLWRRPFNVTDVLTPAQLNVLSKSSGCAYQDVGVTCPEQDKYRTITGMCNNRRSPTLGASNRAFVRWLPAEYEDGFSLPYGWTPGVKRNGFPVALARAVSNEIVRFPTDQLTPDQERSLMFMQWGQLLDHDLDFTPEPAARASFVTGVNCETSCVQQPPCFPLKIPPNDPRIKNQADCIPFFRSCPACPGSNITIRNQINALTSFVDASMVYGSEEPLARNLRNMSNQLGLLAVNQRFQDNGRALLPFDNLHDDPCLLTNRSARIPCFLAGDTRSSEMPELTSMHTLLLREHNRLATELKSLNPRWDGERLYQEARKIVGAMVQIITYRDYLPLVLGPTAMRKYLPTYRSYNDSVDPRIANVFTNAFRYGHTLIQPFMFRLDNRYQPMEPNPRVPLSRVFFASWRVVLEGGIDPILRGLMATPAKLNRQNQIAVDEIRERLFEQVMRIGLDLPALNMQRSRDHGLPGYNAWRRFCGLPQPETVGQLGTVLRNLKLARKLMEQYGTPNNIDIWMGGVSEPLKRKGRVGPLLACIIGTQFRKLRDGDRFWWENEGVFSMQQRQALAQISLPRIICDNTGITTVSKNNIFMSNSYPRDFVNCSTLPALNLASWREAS
As to the kind of experiment: MPO inhibition. It is filed as biochemical. The settings on record: read-out: IC50, irreversible inhibitor of human MPO.

In data set [3] the test system is isolated human neutrophils. Description: PMA stimulated HOCl in isolated neutrophils. The settings on record: Neutrophil. It is filed as cell-based.
The nature of data set [4]: Phase 1 studies in healthy volunteers, adverse events. It is filed as in vivo, human. The settings on record: oral, single doses up to 1200 mg (1400 mg ER), multiple up to 325 mg TID (600 mg BID 10 days ER), 181 subjects.
Data set [5] has as its system human sperm with activated human neutrophils. Description: Sperm motility assessment (Hamilton-Thorn CASA) with activated neutrophils. Format: cell-based. The settings on record: 3 μM. On the procedure:
as §1
Sperm motility was assessed using the Hamilton-Thorn CASA system. For each condition, a total of 200 cells were counted in at least four different fields of view. Where a sample had very low motility at least 100 cells were counted. The motility parameters were assessed at the start of the co-incubation with neutrophils (time 0), after 2 h and after 24 h. Motility was expressed as a percentage different between time 0 and after 2 h and percentage difference after time 0 and after 24 h for each time point for each sample.

Data set [6] concerns in situ zymosan activated peritoneum neutrophils. As to the kind of experiment: In vivo glutathione sulphonamide formation. Also on record: species or system rat. The conditions noted are these: rats, plasma concentration of ~5 μM.
Data set [7] has as its system human sperm. The conditions noted are these: 4 mM, 2-hour incubation, N=29, P<0.01.
Procedure: A 10 mM stock solution of the drug was made up in 100% DMSO. This was then serially diluted to a working concentration of 3 μM using sEBSS as the diluent and stored at 4° C. The drug or vehicle was then added to the neutrophils and placed in a 37° C. water bath for 10 min. The neutrophils were then added to the sperm in sperm-safe 5 mL Polystyrene round bottom tubes (Falcon) at a ratio of about 1:3. Zymosan at a final concentration of 1 μg/ml was added to activate the neutrophils and incubated for 2 hours at 37° C.
Following the 2 h incubation with activated neutrophils, aliquots of 50 μL were taken from all 4 conditions and transferred into 1.5 mL Eppendorf tubes. H2O2 was used as a positive control. An extra aliquot for a secondary only control was taken from the sperm only tube. The cells (except the secondary only tube) were incubated for 0.5 h at 37° C. with an anti-malondialdehyde (MDA) antibody (ab27642, abcam, Cambridge) at a working ratio of 1:50 (Moazamian R, Polhemus A, Connaughton H, Fraser B, Whiting S, Gharagozloo P, Aitken R J. Mol Hum Reprod 2015; 21(6):502-15). […] The level of MDA staining in each condition was then assessed in 10,000 cells using a pre-validated flow cytometry program in a BD LSRFortessa cell analyser. Due to a technical error one sample was unable to be assessed using flow cytometry.

On to `O=c1[nH]c(=S)n(C[C@H]2CCCO2)c2nc[nH]c12` [AZD5904, 3-[[(2R)-tetrahydrofuran-2-yl]methyl]-2-thioxo-7H-purin-6-one], for which, in data set [1] (29 patients evaluated), the “patients with clinically-relevant beneficial effect” value is reported as “over 50%”. In addition, the “sperm found at 1 cm versus vehicle” value in data set [1] (2 h incubation, n=29, p=0.02) is listed as “significantly more sperm”. Moreover, the “further subjects showing a smaller improvement” value in data set [1] (of 29 patients) turned out to be 8. The “subjects with clinically-relevant improvement in sperm penetration” value in data set [1] (of the 29 subjects) was found to be 15. Besides, the IC50 in data set [2] stood at 140 nM. The compound further gave an inhibition at 1 µM in data set [3] greater than 90%. Also, in data set [4], the drug-related adverse events entry is “No overtly drug-related adverse event”. Moreover, the “absolute change in overall sperm motility from baseline to 2 h and 24 h” value in data set [5] (first 11 subjects, vs vehicle, two-tailed t-test P=0.09) is listed as “statistical trend”. In addition, the “percentage differences between CASA measurements at time zero and after 24-hour incubation (motility, progressive, rapid, VAP, VSL, VCL, ALH)” value in data set [5] (n=29, vs vehicle, not statistically significant (P>0.1)) is listed as “positive trend”. For the same compound, in data set [6], the “in vivo formation of glutathione sulphonamide” value is recorded as “decreased”.

On to `OO` [H2O2, hydrogen peroxide], for which the “MDA staining versus the other conditions” value in data set [7] is “stained significantly more”.

The values above are taken from patent publication US11738027B2, “MPO inhibitors for use in medicine” (AstraZeneca AB, priority 2017, dated 2023).
